Molecules are shown by their SMILES. A value given as a limit tells only on which side of the number the result lay.

The record followed here is ChEMBL document CHEMBL5608203, “Design, synthesis and biological evaluation of a new series of imidazothiazole-hydrazone hybrids as dual EGFR and Akt inhibitors for NSCLC therapy” (Eur J Med Chem, 2024).

In series [1] the test system is A549. Nature of the series: cells. The following applies: Homo sapiens, A549, 24 h.
Description: Cytotoxicity against human A549 cells incubated for 24 hrs by MTT assay
Series [2] in a line: Cytotoxicity against human CCD 19Lu cells incubated for 24 hrs by MTT assay. The class given is toxicity, cell-based. In general terms: Formazan colour is commonly taken as a measure of viable cells.
The subject of series [3] is A549. The series is described as follows: Induction of apoptosis in human A549 cells assessed as necrotic cells at IC50 incubated for 24 hrs by Annexin V-FITC/PI staining based flow cytometry (reference value: 2.05 %). It counts as functional. On the technique in general: A flow cytometer gives signals particle by particle.
Series [4] concerns A549. The series is described as follows: Induction of apoptosis in human A549 cells assessed as caspase-3-positive cells at IC50 incubated for 24 hrs by flow cytometry (reference value: 1.50 %). It counts as functional.
The subject of series [5] is A549. Nature of the series: Induction of cell cycle arrest at S phase in human A549 cells at IC50 incubated for 24 hrs by PI staining based flow cytometry (reference value: 59.62 %). The class given is functional.
Series [6] relates to A549. Nature of the series: Induction of apoptosis in human A549 cells assessed as viable cells at IC50 incubated for 24 hrs by Annexin V-FITC/PI staining based flow cytometry (reference value: 96.48 %). The class given is functional.
For series [7], the system named is A549. Nature of the series: Induction of apoptosis in human A549 cells assessed as caspase-3-negative cells at IC50 incubated for 24 hrs by flow cytometry (reference value: 98.49 %). The class given is functional.
In series [8] the test system is A549. The series is described as follows: Induction of cell cycle arrest at G0/G1 phase in human A549 cells at IC50 incubated for 24 hrs by PI staining based flow cytometry (reference value: 9.17 %). It counts as functional.
Series [9] has as its system A549. The series is described as follows: Induction of apoptosis in human A549 cells assessed as late apoptotic cells at IC50 incubated for 24 hrs by Annexin V-FITC/PI staining based flow cytometry (reference value: 1.36 %). The class given is functional.
The subject of series [10] is A549. Nature of the series: Induction of apoptosis in human A549 cells assessed as early apoptotic cells at IC50 incubated for 24 hrs by Annexin V-FITC/PI staining based flow cytometry (reference value: 0.11 %). It counts as functional.
In series [11] the test system is A549. Nature of the series: Induction of cell cycle arrest at G2/M phase in human A549 cells at IC50 incubated for 24 hrs by PI staining based flow cytometry (reference value: 14.00 %). It counts as functional.

`CS(=O)(=O)c1ccc(/C=N/NC(=O)Cc2csc3nc(-c4ccc(C#N)cc4)cn23)cc1`: the IC50 – broadly, the concentration at which inhibition is half-maximal – in the series with A549 [1] came to 133 µM. This compound gave an IC50 at 24 h in series [2] of 160 µM.
As for `COc1ccc(/C=N/NC(=O)Cc2csc3nc(-c4ccc(C#N)cc4)cn23)cc1`, the Activity was determined as 0.24% in the series with A549 [3]; 2.58% in the series on A549 [4]; 68.81% with A549 [5]; 73.36% with A549 [6]; 97.08% with A549 [7]; 5.65% in the series on A549 [8]. Besides, the Activity in the series on A549 [9] was 4.42%; in the series with A549 [10], 21.98%; with A549 [11], 10.28%. This compound also had an IC50 in the series on A549 [1] of 14.3 µM. Further, the midpoint of inhibition in [2], the IC50 at 24 h, lay at 51.7 µM.
Consider `Cc1ccc(/C=N/NC(=O)Cc2csc3nc(-c4ccc(C#N)cc4)cn23)cc1`, for which the Activity came to 0.17% with A549 [3]; 1.88% in the series with A549 [4]; 62.99% in the series with A549 [5]; 77.37% in the series on A549 [6]; 97.98% with A549 [7]; 6.54% in the series on A549 [8]. Besides, the figures for the Activity in the series with A549 [9], in the series on A549 [10] and in the series with A549 [11] were 5.72%, 16.74% and 13.74%, respectively. Also, the IC50 with A549 [1] came to 17.7 µM. Further, the midpoint of inhibition in series [2], the IC50 at 24 h, lay at 115 µM.
`N#Cc1ccc(-c2cn3c(CC(=O)N/N=C/c4ccc(Br)cc4)csc3n2)cc1` returned a half-maximal inhibitory concentration (IC50) in the series with A549 [1] above 500 µM.
Same read-out and setting: the result for `N#Cc1ccc(-c2cn3c(CC(=O)N/N=C/c4ccc([N+](=O)[O-])cc4)csc3n2)cc1` reads above 500 µM.
As to `N#Cc1ccc(-c2cn3c(CC(=O)N/N=C/c4ccc(N5CCOCC5)cc4)csc3n2)cc1`, inhibition in the series with A549 [1] was half-maximal at 12.2 µM (IC50). Also, it took 4.9 µM to reach half-maximal inhibition in series [2] (IC50 at 24 h).
On to `N#Cc1ccc(-c2cn3c(CC(=O)N/N=C/c4ccc(Oc5ccc(Br)cc5)cc4)csc3n2)cc1`, for which, in the series with A549 [1], the IC50 is above 500 µM.
Same read-out and setting: the result for `N#Cc1ccc(-c2cn3c(CC(=O)N/N=C/c4ccc(Cl)cc4)csc3n2)cc1` reads above 500 µM.
`N#Cc1ccc(-c2cn3c(CC(=O)N/N=C/c4ccc(Oc5ccccc5)cc4)csc3n2)cc1` gave an IC50 in the series with A549 [1] above 500 µM.
The compound `N#Cc1ccc(-c2cn3c(CC(=O)N/N=C/c4ccc(-n5cncn5)cc4)csc3n2)cc1` showed an IC50 with A549 [1] of 87.5 µM. The IC50 at 24 h in [2] was above 500 µM.
In the case of `N#Cc1ccc(-c2cn3c(CC(=O)N/N=C/c4ccc(O)cc4)csc3n2)cc1`, the Activity with A549 [3] is on record as 3.89%; in the series with A549 [4], 2.36%; in the series with A549 [5] it was 32.15%; in the series with A549 [6], 92.05%; with A549 [7] it was 97.42%; in the series on A549 [8], 4.95%. Besides, the Activity is reported as 4.03% in the series on A549 [9], 0.03% in the series with A549 [10] and 26.23% in the series with A549 [11]. In the series with A549 [1], this compound had a 50% inhibitory concentration (IC50) of 23.8 µM. This compound had an IC50 at 24 h in [2] above 500 µM.
In the case of `N#Cc1ccc(-c2cn3c(CC(=O)N/N=C/c4ccc(Oc5ccc([N+](=O)[O-])cc5)cc4)csc3n2)cc1`, the IC50 in the series with A549 [1] is above 500 µM.
`N#Cc1ccc(-c2cn3c(CC(=O)N/N=C/c4ccc(-c5ccccn5)cc4)csc3n2)cc1` returned an IC50 with A549 [1] above 500 µM.
Turning to `CC(C)(C)c1ccc(/C=N/NC(=O)Cc2csc3nc(-c4ccc(C#N)cc4)cn23)cc1`, the Activity in the series with A549 [3] is given as 0.32%; in the series on A549 [4], 4.14%; with A549 [5] it was 48.94%; in the series on A549 [6], 79.17%; in the series on A549 [7], 95.41%; with A549 [8], 3.91%. The Activity came to 5.13% in the series on A549 [9], 15.38% in the series on A549 [10] and 20.92% in the series on A549 [11]. Besides, the IC50 in the series on A549 [1] is 22.5 µM. The compound also returned an IC50 at 24 h in series [2] of 66.5 µM.
With `N#Cc1ccc(-c2cn3c(CC(=O)N/N=C/c4ccccc4)csc3n2)cc1`, the Activity came to 0.02% in the series with A549 [3]; 3.97% in the series with A549 [4]; 38.28% in the series with A549 [5]; 87.52% in the series on A549 [6]; 95.65% with A549 [7]; 7.37% with A549 [8]. For the same compound, the values for the Activity in the series on A549 [9], in the series with A549 [10] and in the series with A549 [11] were 3.76%, 8.7% and 16.14%, respectively. The compound also yielded an IC50 in the series with A549 [1] of 51.3 µM. In series [2], the IC50 at 24 h was above 500 µM.
Turning to `N#Cc1ccc(-c2cn3c(CC(=O)N/N=C/c4ccc(F)cc4)csc3n2)cc1`, the IC50 in the series with A549 [1] came to 101 µM. In [2], this compound had an IC50 at 24 h of 44.4 µM.
`N#Cc1ccc(-c2cn3c(CC(=O)N/N=C/c4ccc(Oc5ccc(Cl)cc5)cc4)csc3n2)cc1` gave an IC50 in the series with A549 [1] above 500 µM.
With `N#Cc1ccc(Oc2ccc(/C=N/NC(=O)Cc3csc4nc(-c5ccc(C#N)cc5)cn34)cc2)cc1`, the IC50 in the series on A549 [1] was above 500 µM.
Consider `CCn1c(-c2nonc2N)nc2c(C#CC(C)(C)O)ncc(OC[C@H]3CCCNC3)c21` [GSK-690693], for which the Activity is 1.86% with A549 [3]; 24.29% with A549 [4]; 27.55% in the series on A549 [5]; 36.36% with A549 [6]; 73.93% in the series with A549 [7]; 30.35% in the series on A549 [8]. Further, the Activity turned out to be 18.78% in the series with A549 [9], 43% with A549 [10] and 13.5% in the series with A549 [11]. Also, in the series with A549 [1], the IC50 was 11.8 µM.
In the series with A549 [1], `CSc1ccc(/C=N/NC(=O)Cc2csc3nc(-c4ccc(C#N)cc4)cn23)cc1` came in with a 50% inhibitory concentration (IC50) of 379 µM. For the same compound, in [2], the IC50 at 24 h was above 500 µM.
Taken in the same sequence, the figures for `N#Cc1ccc(-c2cn3c(CC(=O)N/N=C/c4ccc(-n5ccnc5)cc4)csc3n2)cc1` were 16.9 µM and 1.44 µM.
In the case of `N#Cc1ccc(/C=N/NC(=O)Cc2csc3nc(-c4ccc(C#N)cc4)cn23)cc1`, the Activity with A549 [3] is listed as 0.11%; in the series with A549 [4] it was 34.94%; with A549 [5], 43.76%; in the series with A549 [6] it was 62.71%; with A549 [7], 63.66%; in the series with A549 [8], 13.81%. The Activity in the series with A549 [9] was 14.85%; in the series on A549 [10] it was 22.33%; with A549 [11], 12.95%. This compound came in with an IC50 in the series on A549 [1] of 43.7 µM. Moreover, the IC50 at 24 h in [2] is above 500 µM.
In the case of `C#Cc1cccc(Nc2ncnc3cc(OCCOC)c(OCCOC)cc23)c1` [ERLOTINIB], the Activity turned out to be 0.09% with A549 [3]; 6.31% in the series on A549 [4]; 54.85% with A549 [5]; 82.76% in the series with A549 [6]; 93.1% with A549 [7]; 12.58% in the series on A549 [8]. The Activity in the series with A549 [9] came out at 4.86%; in the series on A549 [10], 12.28%; in the series on A549 [11], 13.45%.
On to `N#Cc1ccc(-c2cn3c(CC(=O)N/N=C/c4ccc(N5CCCC5)cc4)csc3n2)cc1`, for which, in the series on A549 [1], the IC50 is above 500 µM.
Still for that read-out and setting: the result for `N#Cc1ccc(-c2cn3c(CC(=O)N/N=C/c4ccc5ccccc5c4)csc3n2)cc1` reads above 500 µM.
Same read-out and setting: the result for `N#Cc1ccc(-c2cn3c(CC(=O)N/N=C/c4ccc(C(F)(F)F)cc4)csc3n2)cc1` reads above 500 µM.
For `CC(C)c1ccc(/C=N/NC(=O)Cc2csc3nc(-c4ccc(C#N)cc4)cn23)cc1`, the midpoint of inhibition in the series on A549 [1], the IC50, lay at 15.5 µM. Besides, the IC50 at 24 h in series [2] is below 3.9 µM.
Compound `N#Cc1ccc(-c2cn3c(CC(=O)N/N=C/c4ccc(Oc5ccc(F)cc5)cc4)csc3n2)cc1` registered an IC50 in the series with A549 [1] above 500 µM.
`N#Cc1ccc(-c2cn3c(CC(=O)N/N=C/c4ccc(N5CCCCC5)cc4)csc3n2)cc1` yielded a concentration for half-maximal inhibition (IC50) in the series with A549 [1] of 221 µM. In addition, in [2], the IC50 at 24 h is above 500 µM.
